Experimental data reported in patent US10280447B2, “Substituted imidazo[1,2-A]pyrazines tethered to energy acceptors” (PROMEGA CORPORATION, priority 2016, dated 2019).

Tested on: NanoLuc® enzyme and NanoLuc-Halotag fusion protein enzyme
Test: Spectral profile of the coelenterazine analogue/luciferase reaction (Tecan-M1000, 3 nm increments)
Format: biochemical, Oplophorus gracilirostris
Details: NanoGlo® buffer
Experimental: FIGS. 2A-2D show the spectral profiles of varying concentrations of TAK-0043 and enzyme in NanoGlo® buffer. […] TAK-0043 was tested as a potential coelenterazine analogue capable of shifting the emission spectrum in a coelenterazine/luciferase reaction. A dilution series of purified NanoLuc® enzyme (Promega E499a) and NanoLuc-Halotag fusion protein enzyme was prepared in OptiMEM+0.1% FBS starting 2 μM. 50 ul of the 2 μM enzyme dilutions were combined with 50 μl of 2 μM and 20 μM TAK-0043 in NanoGlo® buffer in triplicate. These samples were immediately read on the Tecan-M1000 using 3 nm increments to obtain spectral profiles. Another spectral measurement was completed by combining 50 μl of 6.6 μM NanoLuc® enzyme and NanoLuc-Halotag fusion protein enzyme in OptiMEM+0.1% FBS with 50 μl of 2 μM TAK-0043 in NanoGlo® buffer in triplicate. This sample was also read on the Tecan M-1000 using […] increments.

O=C(NCCCCCCOc1cccc(Cc2nc3c(Cc4ccccc4)[nH]c(-c4ccccc4)cn-3c2=O)c1)c1ccc(C(=O)O)c(C2=c3cc4c5c(c3Oc3c2cc2c6c3CCCN6CCCC2)CCC[N+]=5CCCC4)c1 [TAK-0043]
peak for coelenterazine emission at 460 nm (TAK-0043 with NanoLuc® and NanoLuc-HaloTag fusion enzyme): nearly invisible
emitted photons shifted to NCT dye emission (all concentrations of TAK-0043 (1 or 10 uM) and enzyme (1 or 3.3 uM) used): > 95%
emission maximum (all concentrations of TAK-0043 and enzyme used): 618 nm
